From the supplement of paper PMC10949913

What was measured:
Experiment in all cases: area under concentration-response curve (viability) (AUC (a.u.)); higher = less active
Conditions in all cases: 48 h
CU-ACC1 = system: CU-ACC1
In short: (§1)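 Concentration-response curves were fitted to obtain AC50 and area under the curve, keeping inhibitory or non-responding curve classes only. Data came from CellTiter-Glo luminescence, normalised per plate to vehicle and empty-well controls, in three adrenocortical carcinoma cell lines. These were treated in 1,536-well plates with library compounds at 11 concentrations and read after 48 h.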

CU-ACC2 = system: CU-ACC2
In short: as §1

NCI-H295R = system: NCI-H295R
In short: as §1

## C[C@]12CC[C@H]3[C@@H](CC[C@@]45O[C@@H]4\C(=C(/C[C@]35C)C#N)O)[C@@H]1CC[C@@H]2O
CU-ACC1
  area under concentration-response curve: 571
CU-ACC2
  area under concentration-response curve: 590

## COc1ncnc(N[S+](=O)([O-])c2ccc(N)cc2)c1OC
CU-ACC1
  area under concentration-response curve: 593
CU-ACC2
  area under concentration-response curve: 604

## CC(C)N(C[C@H]1O[C@@H](n2cnc3c(N)ncnc32)[C@H](O)[C@@H]1O)[C@H]1C[C@@H](CCc2nc3cc(C(C)(C)C)ccc3[nH]2)C1
CU-ACC1
  area under concentration-response curve: 543
CU-ACC2
  area under concentration-response curve: 598

## COc1ccc2[n-]c([S+]([O-])Cc3ncc(C)c(OC)c3C)nc2c1 (stereo unspecified)
CU-ACC1
  area under concentration-response curve: 387
CU-ACC2
  area under concentration-response curve: 398

## Cn1cc(C[C@@H](N)C(=O)O)c2ccccc21
CU-ACC1
  area under concentration-response curve: 619
CU-ACC2
  area under concentration-response curve: 658

## CSC[C@H]1CN(Cc2c[nH]c3c(N)ncnc23)C[C@@H]1O
CU-ACC1
  area under concentration-response curve: 364
CU-ACC2
  area under concentration-response curve: 417

## OC[C@H]1O[C@@H](O[C@@H]2O\C=C(/[C@H]3C\C=C(CO)/[C@@H]23)C(O)=O)[C@H](O)[C@@H](O)[C@@H]1O
CU-ACC1
  area under concentration-response curve: 538
CU-ACC2
  area under concentration-response curve: 594

## O=[S+]([O-])(c1cccc2c(I)cccc12)N1CCCNCC1
CU-ACC2
  area under concentration-response curve: 649

## O=[S+]([O-])(NCCNC/C=C/c1ccc(Br)cc1)c1cccc2cnccc12
CU-ACC2
  area under concentration-response curve: 595

## NC1=NC(=O)N2CC12 (stereo unspecified)
CU-ACC2
  area under concentration-response curve: 592

## CCN(c1ccccc1)c1cc(NC)[n+](C)c(C)n1
CU-ACC1
  area under concentration-response curve: 574
CU-ACC2
  area under concentration-response curve: 600

## NC\1=N\C(=O)N(\C=C1)[C@@H]2O[C@H](CO)[C@@H](O)[C@H]2O
CU-ACC1
  area under concentration-response curve: 582
CU-ACC2
  area under concentration-response curve: 610

## C[C@H]1[C@H](O)[C@@H](C)/C=C/C=C/CC/C=C/C=C/C=C/C=C/[C@H](O[C@@H]2O[C@H](C)[C@@H](O)[C@H](N)[C@@H]2O)C[C@@H]2O[C@](O)(C[C@@H](O)[C@H](O)CC[C@@H](O)C[C@@H](O)C[C@@H](O)CC(=O)O[C@H]1C)C[C@H](O)[C@H]2C(=O)O
CU-ACC1
  area under concentration-response curve: 375
CU-ACC2
  area under concentration-response curve: 426

## O=C1Nc2ccccc2/C1=C1\Nc2ccccc2C1=O
CU-ACC1
  area under concentration-response curve: 557
CU-ACC2
  area under concentration-response curve: 589

## N#Cc1ccc(NC(=O)Nc2ccccc2Br)c2nn[nH]c12
CU-ACC1
  area under concentration-response curve: 573
CU-ACC2
  area under concentration-response curve: 638

## O=C(Nc1cccnc1)c1cc(-c2ccnc(F)c2)ccc1OCc1ccccc1
CU-ACC1
  area under concentration-response curve: 514
CU-ACC2
  area under concentration-response curve: 615

## CNC(=O)c1ccc(N2C(=S)N(c3cnc(C#N)c(C(F)(F)F)c3)C(=O)C23CCC3)cc1F
CU-ACC1
  area under concentration-response curve: 505
CU-ACC2
  area under concentration-response curve: 565

## ClC1=CC=C(C=C1)C(C#N)C2=C(Cl)C=C(C=C2Cl)N3\N=C/C(=O)NC3=O (stereo unspecified)
CU-ACC1
  area under concentration-response curve: 524
CU-ACC2
  area under concentration-response curve: 626

## Cc1ccccc1C(=O)c1ccc(Nc2ccc(Br)cc2N)cc1Cl
CU-ACC2
  area under concentration-response curve: 502

## NC1CCCN(c2c(/C=C3\SC(=O)NC3=O)cccc2-c2ccccc2)C1 (stereo unspecified)
CU-ACC1
  area under concentration-response curve: 563
CU-ACC2
  area under concentration-response curve: 648

## O=C(Nc1ccc(OC(F)(F)F)cc1)c1sccc1NCc1ccnc2ccccc12
CU-ACC1
  area under concentration-response curve: 525
CU-ACC2
  area under concentration-response curve: 639

## COC1=CC=CC(=C1N)\C2=C\C(=O)C3=C(O2)C=CC=C3
CU-ACC2
  area under concentration-response curve: 591

## O=C(O)c1ccc(-n2nc(-c3ccccc3O)nc2-c2ccccc2O)cc1
CU-ACC2
  area under concentration-response curve: 590

## CNC(=O)C1=CC=C(C)C(=C1)N2C(=C/C(=C(/Br)C2=O)OCC3=C(F)C=C(F)C=C3)\C
CU-ACC2
  area under concentration-response curve: 547

## CC#C[C@]1(O)CC[C@H]2[C@@H]/3CCC/4=C/C(=O)CCC4=C3[C@H](C[C@]12C)C5=CC=C(C=C5)N(C)C
CU-ACC2
  area under concentration-response curve: 546

## Nc1nc(F)nc2c1ncn2C1OC(COP(=O)(O)O)C(O)C1O (stereo unspecified)
CU-ACC2
  area under concentration-response curve: 619

## CN1CCCN=C1/C=C/c1cccs1
CU-ACC2
  area under concentration-response curve: 211

## C=C1C(=O)OC2/C=C(/C)CC/C=C(/C)CCC12 (stereo unspecified)
CU-ACC2
  area under concentration-response curve: 598

## CC[C@@H](C)[C@H](NC(=O)[C@H](CC1CCCCC1)NC(=O)c1ccno1)C(=O)N1CCC2(CCc3ccccc32)CC1
CU-ACC2
  area under concentration-response curve: 118

## N#Cc1cc(NC(=O)Nc2nnc(-c3ccncc3)s2)ccc1-c1cn[nH]c1
CU-ACC2
  area under concentration-response curve: 529

## CC1=CC(=CC(=C1C\C2=N\CCN2)C)C(C)(C)C
CU-ACC2
  area under concentration-response curve: 595

## C=CC(=O)Nc1ccc(F)c(-c2ncnc3[nH]cc(C(=O)OCC)c23)c1
CU-ACC2
  area under concentration-response curve: 489

## NC(=O)c1ccc(-c2nc(-c3ccc4c(c3)OCCO4)c(-c3ccccn3)[nH]2)cc1
CU-ACC2
  area under concentration-response curve: 366

## OC1=CC=C2\C3=C(CNCC3)/C(=O)OC2=C1C4OCCCO4
CU-ACC2
  area under concentration-response curve: 623

## CO[C@H]1C[C@@H]2CC[C@@H](C)[C@@](O)(O2)C(=O)C(=O)N2CCCC[C@H]2C(=O)O[C@H]([C@H](C)C[C@@H]2CC[C@@H](OP(C)(C)=O)[C@H](OC)C2)CC(=O)[C@H](C)/C=C(\C)[C@@H](O)[C@@H](OC)C(=O)[C@H](C)C[C@H](C)/C=C/C=C/C=C/1C
CU-ACC2
  area under concentration-response curve: 536

## COC1=CC=C(C=C1)C2CC(=N/N2C3=CC=C(C=C3)[S+](N)([O-])=O)\C4=CC=CC=C4 (stereo unspecified)
CU-ACC2
  area under concentration-response curve: 648

## COc1ccc(-n2nc(C(N)=O)c3c2C(=O)N(c2ccc(N4CCCCC4=O)cc2)CC3)cc1
CU-ACC2
  area under concentration-response curve: 374

## CCN(C1CCOCC1)C2=C(C)C(=CC(=C2)C3=CC=C(CN4CCOCC4)C=C3)C(=O)NC\C5=C(C)\C=C(C)/NC5=O
CU-ACC1
  area under concentration-response curve: 262
NCI-H295R
  area under concentration-response curve: 249

## CCC(C)N(C)C(=O)c1cc2ccccc2c(-c2ccccc2Cl)n1 (stereo unspecified)
CU-ACC1
  area under concentration-response curve: 492
NCI-H295R
  area under concentration-response curve: 337

## COc1ccc(C2(C#N)CCC(C(=O)O)CC2)cc1OC1CCCC1 (stereo unspecified)
CU-ACC1
  area under concentration-response curve: 548
NCI-H295R
  area under concentration-response curve: 606

## O=C(Nc1nnc(-c2ccco2)o1)c1cc(-c2ccccc2)nc2ccccc12
CU-ACC2
  area under concentration-response curve: 576

## COc1ccccc1C(=O)Nc1cc2c(cc1N1CCNC[C@H]1C)n(C)c(=O)n2C
CU-ACC1
  area under concentration-response curve: 479
NCI-H295R
  area under concentration-response curve: 550

## c1cnc2cc3c(cc2n1)C1CNCC3C1
CU-ACC1
  area under concentration-response curve: 536
NCI-H295R
  area under concentration-response curve: 563

## C/N=c1\ncc2cc(-c3cc(N/C(O)=N/CCC(C)(C)C)c(F)cc3C)c(C)nc2[nH]1
CU-ACC1
  area under concentration-response curve: 454
NCI-H295R
  area under concentration-response curve: 474

## CN1CC/C(CC1)=C3\c4ccccc4CCc2sccc23
CU-ACC2
  area under concentration-response curve: 659

## CC(C)(N)C(=O)N[C@H](COCc1ccccc1)C(=O)N1CCC2(CC1)CN([S+](C)(=O)[O-])c1ccccc12
CU-ACC2
  area under concentration-response curve: 489

## Cc1ccccc1C(C(=O)NC1CCCCC1)N(C(=O)CNc1ccc(C#N)cc1)c1cccc(F)c1 (stereo unspecified)
CU-ACC1
  area under concentration-response curve: 485
NCI-H295R
  area under concentration-response curve: 507

## CC\1=C/C=C\C=[N]1[Pt](N)(Cl)Cl
CU-ACC2
  area under concentration-response curve: 450

## c1ccc(-c2oc3ncnc(NC[C@@H]4CCCO4)c3c2-c2ccccc2)cc1
CU-ACC1
  area under concentration-response curve: 517
NCI-H295R
  area under concentration-response curve: 572

## CC1=NN(c2ccc(C)c(C)c2)C(=O)/C1=N/Nc1cccc(-c2cccc(C(=O)O)c2)c1O
CU-ACC1
  area under concentration-response curve: 437
NCI-H295R
  area under concentration-response curve: 500

## CCCCOCCOc1nc(-c2ccc(C(=O)O)c(F)c2)sc1C
CU-ACC1
  area under concentration-response curve: 367
NCI-H295R
  area under concentration-response curve: 399

## Cn1cc(-c2ccc3c(c2)CCN3C(=O)Cc2cccc(C(F)(F)F)c2)c2c(N)ncnc21
CU-ACC1
  area under concentration-response curve: 523
NCI-H295R
  area under concentration-response curve: 577

## O=C/1NC(=O)C(=C1C2=CN=C3C=CC=C[N]23)/C4=C[N]5CCN(CC6=C5C4=CC=C6)C(=O)N7CCOCC7
CU-ACC1
  area under concentration-response curve: 514
NCI-H295R
  area under concentration-response curve: 526

## CNC(=O)c1cc(Oc2ccc(NC(=O)Nc3cc(C(C)(C)C)nn3-c3ccc4ncccc4c3)c(F)c2)ccn1
CU-ACC1
  area under concentration-response curve: 496
NCI-H295R
  area under concentration-response curve: 561

## CCC[S+](=O)([O-])Nc1ccc(F)c(C(=O)c2c[nH]c3ncc(Cl)cc23)c1F
CU-ACC1
  area under concentration-response curve: 475
NCI-H295R
  area under concentration-response curve: 493

## CCCCCC[C@H]1C(=O)O[C@H](C)[C@H](NC(=O)c2cccc(NC=O)c2O)C(=O)O[C@@H](C)[C@@H]1OC(=O)CC(C)C
CU-ACC1
  area under concentration-response curve: 491
NCI-H295R
  area under concentration-response curve: 467

## COCCCOc1ccnc(CS(=O)c2nc3ccccc3[n-]2)c1C.[Na+] (stereo unspecified)
CU-ACC2
  area under concentration-response curve: 564

## NC(=O)c1nc(F)cnc1O
CU-ACC1
  area under concentration-response curve: 506
NCI-H295R
  area under concentration-response curve: 553

## O=C(/C=C/c1ccc(O)cc1)c1ccc(O)cc1O
CU-ACC1
  area under concentration-response curve: 465
NCI-H295R
  area under concentration-response curve: 492

## CN(C)C1=C(Br)C=C(C=C1)C\2NC3=C(\C4=C2C(=O)CC(C)(C)C4)C5=CC=CC=C5C=C3 (stereo unspecified)
CU-ACC1
  area under concentration-response curve: 506
NCI-H295R
  area under concentration-response curve: 515

## O=C1OC(COc2ccccc2[N+](=O)[O-])CC1Cc1ccccc1 (stereo unspecified)
CU-ACC1
  area under concentration-response curve: 412
NCI-H295R
  area under concentration-response curve: 521

## COc1cc(N2CCN(C)CC2)ccc1Nc1ncc2c(n1)N(C)c1ccccc1C(=O)N2C
CU-ACC1
  area under concentration-response curve: 389
NCI-H295R
  area under concentration-response curve: 459

## Cc1c(F)ccc(C(=O)Nc2cc([N+](=O)[O-])ccc2N2CCN(C)CC2)c1Cl
CU-ACC1
  area under concentration-response curve: 457
NCI-H295R
  area under concentration-response curve: 434
